Measurements as given in US5405849A, “Angiotensin II receptor blocking 2,3,6 substituted quinazolinones” (American Cyanamid Company, priority 1993, dated 1995).

System: angiotensin II (AII) vasopressor response
Test: AII challenge: antagonism of the vasopressor response of angiotensin II in conscious Okamoto-Aoki SHR
Format: in vivo, rat (Okamoto-Aoki SHR)
Conditions: for inhibition in vivo at 1 mg/kg / inhibition in vivo at 2 mg/kg / inhibition in vivo at 3 mg/kg / inhibition in vivo at 5 mg/kg: Rattus norvegicus; for inhibition in vivo at 1 mg/kg / inhibition in vivo at 2 mg/kg / inhibition in vivo at 3 mg/kg: iv; for inhibition in vivo at 5 mg/kg: po
Excerpt: Conscious Male Okamoto-Aoki SHR, 16-20 weeks old, weighing approximately 330 g are purchased from Charles River Labs (Wilmington, Mass.). Conscious rats are restrained in a supine position with elastic tape. The area at the base of the tail is locally anesthetized by subcutaneous infiltration with 2% procaine. The ventral caudal artery and vein are isolated, and a cannula made of polyethylene (PE) 10-20 tubing (fused together by heat) is passed into the lower abdominal aorta and vena cava, respectively. The cannula is secured, heparinized (1,000 I.U./ml), sealed and the wound is closed. The animals are placed in plastic restraining cages in an upright position. The cannula is attached to a Statham P23Db pressure transducer, and pulsatile blood pressure is recorded to 10-15 minutes with a Gould Brush recorder.
Angiotensin II (human sequence, Sigma Chem. Co., St. Louis, Mo.) of 0.05 and 0.1 ug/kg i.v. is injected into all rats (predosing response). Then a test compound, vehicle or a known angiotensin II antagonist is administered i.v., i.p. or orally to each set of rats. […] The vasopressor response of angiotensin II is measured for the increase in systolic blood pressure in mmHg. The percentage of antagonism or blockade of the vasopressor response of angiotensin II by a compound is calculated using the vasopressor response (increase in systolic blood pressure) of angiotensin II of each rat predosing the compound as 100%.

SMILES: CCCCc1nc2ccc(C(C)(C)OC)cc2c(=O)n1Cc1ccc(-c2ccccc2-c2nnn[nH]2)cc1 [Example 57, 2-Butyl-6-(1-methoxy-1-methylethyl)-3-[[2'-(1H-tetrazol-5-yl)[1,1'-biphenyl]-4-yl]methyl]-4(3H)-quinazolinone]
- Response change (systolic BP increase to AII) (1 mg/kg iv, AII .025 ug/kg, 15 min): 15 mmHg
- Response change (systolic BP increase to AII) (1 mg/kg iv, AII .025 ug/kg, 30 min): 15 mmHg
- Response change (systolic BP increase to AII) (1 mg/kg iv, AII .025 ug/kg, 60 min): 5 mmHg
- Response change (systolic BP increase to AII) (1 mg/kg iv, AII .05 ug/kg, 15 min): 5 mmHg
- Response change (systolic BP increase to AII) (1 mg/kg iv, AII .05 ug/kg, 30 min): 10 mmHg
- Response change (systolic BP increase to AII) (1 mg/kg iv, AII .05 ug/kg, 60 min): 15 mmHg
- Response change (systolic BP increase to AII) (1 mg/kg iv, AII .1 ug/kg, 15 min): 25 mmHg
- Response change (systolic BP increase to AII) (1 mg/kg iv, AII .1 ug/kg, 30 min): 35 mmHg
- Response change (systolic BP increase to AII) (1 mg/kg iv, AII .1 ug/kg, 60 min): 35 mmHg
- Response change (systolic BP increase to AII) (2 mg/kg iv, AII .025 ug/kg, 30 min): 0 mmHg
- Response change (systolic BP increase to AII) (2 mg/kg iv, AII .025 ug/kg, 120 min): 60 mmHg
- Response change (systolic BP increase to AII) (2 mg/kg iv, AII .025 ug/kg, 150 min): 0 mmHg
- Response change (systolic BP increase to AII) (2 mg/kg iv, AII .05 ug/kg, 30 min): 0 mmHg
- Response change (systolic BP increase to AII) (2 mg/kg iv, AII .05 ug/kg, 120 min): 30 mmHg
- Response change (systolic BP increase to AII) (2 mg/kg iv, AII .05 ug/kg, 150 min): 0 mmHg
- Response change (systolic BP increase to AII) (2 mg/kg iv, AII .1 ug/kg, 30 min): 0 mmHg
- Response change (systolic BP increase to AII) (2 mg/kg iv, AII .1 ug/kg, 120 min): 20 mmHg
- Response change (systolic BP increase to AII) (3 mg/kg iv, AII .025 ug/kg, 150 min): 15 mmHg
- Response change (systolic BP increase to AII) (3 mg/kg iv, AII .05 ug/kg, 150 min): 15 mmHg
- Response change (systolic BP increase to AII) (3 mg/kg iv, AII .1 ug/kg, 150 min): 25 mmHg
- Response change (systolic BP increase to AII) (5 mg/kg oral, AII .025 ug/kg, 240 min): 0 mmHg
- inhibition in vivo at 1 mg/kg (0.25 h, 1 mg/kg iv, AII .025 ug/kg, 15 min): 50%
- inhibition in vivo at 1 mg/kg (0.25 h, 1 mg/kg iv, AII .05 ug/kg, 15 min): 89%
- inhibition in vivo at 1 mg/kg (0.25 h, 1 mg/kg iv, AII .1 ug/kg, 15 min): 48%
- inhibition in vivo at 1 mg/kg (0.5 h, 1 mg/kg iv, AII .025 ug/kg, 30 min): 50%
- inhibition in vivo at 1 mg/kg (0.5 h, 1 mg/kg iv, AII .05 ug/kg, 30 min): 78%
- inhibition in vivo at 1 mg/kg (0.5 h, 1 mg/kg iv, AII .1 ug/kg, 30 min): 27%
- inhibition in vivo at 2 mg/kg (0.5 h, 2 mg/kg iv, AII .025 ug/kg, 30 min): 100%
- inhibition in vivo at 2 mg/kg (0.5 h, 2 mg/kg iv, AII .05 ug/kg, 30 min): 100%
- inhibition in vivo at 2 mg/kg (0.5 h, 2 mg/kg iv, AII .1 ug/kg, 30 min): 100%
- inhibition in vivo at 1 mg/kg (1 h, 1 mg/kg iv, AII .025 ug/kg, 60 min): 83%
- inhibition in vivo at 1 mg/kg (1 h, 1 mg/kg iv, AII .05 ug/kg, 60 min): 67%
- inhibition in vivo at 1 mg/kg (1 h, 1 mg/kg iv, AII .1 ug/kg, 60 min): 27%
- inhibition in vivo at 2 mg/kg (2 h, 2 mg/kg iv, AII .025 ug/kg, 120 min): 100%
- inhibition in vivo at 2 mg/kg (2 h, 2 mg/kg iv, AII .05 ug/kg, 120 min): 33%
- inhibition in vivo at 2 mg/kg (2 h, 2 mg/kg iv, AII .1 ug/kg, 120 min): 58%
- inhibition in vivo at 2 mg/kg (2.5 h, 2 mg/kg iv, AII .025 ug/kg, 150 min): 100%
- inhibition in vivo at 2 mg/kg (2.5 h, 2 mg/kg iv, AII .05 ug/kg, 150 min): 100%
- inhibition in vivo at 2 mg/kg (2.5 h, 2 mg/kg iv, AII .1 ug/kg, 150 min): 82%
- inhibition in vivo at 3 mg/kg (2.5 h, 3 mg/kg iv, AII .025 ug/kg, 150 min): 50%
- inhibition in vivo at 3 mg/kg (2.5 h, 3 mg/kg iv, AII .05 ug/kg, 150 min): 67%
- inhibition in vivo at 3 mg/kg (2.5 h, 3 mg/kg iv, AII .1 ug/kg, 150 min): 48%
- inhibition in vivo at 5 mg/kg (0.5 h, 5 mg/kg oral, AII .025 ug/kg, 30 min): 94%
- inhibition in vivo at 5 mg/kg (1 h, 5 mg/kg oral, AII .025 ug/kg, 60 min): 89%
- inhibition in vivo at 5 mg/kg (1.5 h, 5 mg/kg oral, AII .05 ug/kg, 90 min): 61%
- inhibition in vivo at 5 mg/kg (1.5 h, 5 mg/kg oral, AII .1 ug/kg, 90 min): 36%
- inhibition in vivo at 5 mg/kg (2 h, 5 mg/kg oral, AII .025 ug/kg, 120 min): 94%
- inhibition in vivo at 5 mg/kg (2 h, 5 mg/kg oral, AII .1 ug/kg, 120 min): 40%
- inhibition in vivo at 5 mg/kg (3 h, 5 mg/kg oral, AII .025 ug/kg, 180 min): 72%
- inhibition in vivo at 5 mg/kg (3 h, 5 mg/kg oral, AII .05 ug/kg, 180 min): 68%
- inhibition in vivo at 5 mg/kg (3 h, 5 mg/kg oral, AII .1 ug/kg, 180 min): 56%
- inhibition in vivo at 5 mg/kg (4 h, 5 mg/kg oral, AII .025 ug/kg, 240 min): 100%
- inhibition in vivo at 5 mg/kg (4 h, 5 mg/kg oral, AII .05 ug/kg, 240 min): 49%
- inhibition in vivo at 5 mg/kg (4 h, 5 mg/kg oral, AII .1 ug/kg, 240 min): 48%
